Key:
Format in all cases: in vivo
[1] = tested on: Echinochloa crus-galli (ECHCG); test: Pre-emergence herbicidal activity, glasshouse pot test; details: Echinochloa crus-galli, 312 h; Rate 250 g/ha; pre-emergence spray; evaluated after 13 days; read-out: Pre-emergence activity ECHCG (100=total damage to plant; 0=no damage to plant)
Procedure, shortened: (§1)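 Pot-grown plants in standard soil received a spray one day post-sowing (pre-emergence) or after eight days' growth (post-emergence). Scoring took place 13 days later on a 0–100 scale, 100 meaning total damage.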

Lolium perenne (LOLPE) [2] = test: as above; details: Lolium perenne, 312 h; Rate 250 g/ha; pre-emergence spray; evaluated after 13 days; read-out: Pre-emergence activity LOLPE (100=total damage to plant; 0=no damage to plant)
Procedure, shortened: as §1

[3] = tested on: Alopecurus myosuroides (ALOMY); test: as above; details: Alopecurus myosuroides, 312 h; Rate 250 g/ha; pre-emergence spray; evaluated after 13 days; read-out: Pre-emergence activity ALOMY (100=total damage to plant; 0=no damage to plant)
Procedure, shortened: as §1

Avena fatua (AVEFA) [4] = test: as above; details: Avena fatua, 312 h; Rate 250 g/ha; pre-emergence spray; evaluated after 13 days; read-out: Pre-emergence activity AVEFA (100=total damage to plant; 0=no damage to plant)
Procedure, shortened: as §1

[5] = tested on: Echinochloa crus-galli (ECHCG); test: Post-emergence herbicidal activity, glasshouse pot test; details: Echinochloa crus-galli, 312 h, rate 250 g/ha, evaluated after 13 days, glasshouse, read-out: Post-emergence activity ECHCG (100=total damage to plant; 0=no damage to plant)
Procedure, shortened: as §1

Lolium perenne (LOLPE) [6] = test: as above; details: Lolium perenne, 312 h, rate 250 g/ha, evaluated after 13 days, glasshouse, read-out: Post-emergence activity LOLPE (100=total damage to plant; 0=no damage to plant)
Procedure, shortened: as §1

[7] = tested on: Alopecurus myosuroides (ALOMY); test: as above; details: Alopecurus myosuroides, 312 h, rate 250 g/ha, evaluated after 13 days, glasshouse, read-out: Post-emergence activity ALOMY (100=total damage to plant; 0=no damage to plant)
Procedure, shortened: as §1

Avena fatua (AVEFA) [8] = test: as above; details: Avena fatua, 312 h, rate 250 g/ha, evaluated after 13 days, glasshouse, read-out: Post-emergence activity AVEFA (100=total damage to plant; 0=no damage to plant)
Procedure, shortened: as §1

SMILES	pest or weed control at 250 g/ha [1] [%]	pest or weed control at 250 g/ha (Lolium perenne (LOLPE) [2]) [%]	pest or weed control at 250 g/ha [3] [%]	pest or weed control at 250 g/ha (Avena fatua (AVEFA) [4]) [%]	pest or weed control at 250 g/ha [5] [%]	pest or weed control at 250 g/ha (Lolium perenne (LOLPE) [6]) [%]	pest or weed control at 250 g/ha [7] [%]	pest or weed control at 250 g/ha (Avena fatua (AVEFA) [8]) [%]
CCc1ccc(Oc2ccc(C(F)(F)F)cc2[N+](=O)[O-])cc1C1=C(O)[C@@H]2CC[C@](C)(C1=O)C2(C)C [Example A-327]	100	90	70	20	100	70	80	90
CCc1ccc(Oc2nc3c(Cl)cc(Cl)cc3s2)cc1C1=C(O)[C@@H]2CC[C@](C)(C1=O)C2(C)C [Example A-328]	100	90	50	30	100	70	60	80
CCc1ccc(Oc2ncc(Cl)cc2C(F)(F)F)cc1C1=C(O)[C@@H]2CC[C@](C)(C1=O)C2(C)C [Example A-329]	100	100	90	90	100	70	80	90
CCc1ccc(Oc2ccc(C#N)c(Cl)c2)cc1C1=C(O)[C@H]2CC[C@H](C2)C1=O [Example A-330]	100	100	80	80	100	70	70	80
CCc1ccc(Oc2ccc(C(F)(F)F)cc2Cl)cc1C1=C(O)[C@H]2CC[C@H](C2)C1=O [Example A-331]	100	100	90	80	100	80	80	80
CCc1ccc(Oc2ccc(C(F)(F)F)c(Cl)c2)cc1C1=C(O)[C@H]2CC[C@H](C2)C1=O [Example A-332]	100	100	80	70	100	100	100	100
CCc1ccc(Oc2ccc([N+](=O)[O-])c(Cl)c2)cc1C1=C(O)[C@H]2CC[C@H](C2)C1=O [Example A-333]	100	90	50	40	100	60	60	70
CCc1ccc(Oc2ccc(C(F)(F)F)cn2)cc1C1=C(O)[C@H]2CC[C@H](C2)C1=O [Example A-334]	100	100	100	100	100	100	90	100
CCc1ccc(Oc2ncc(C(F)(F)F)cc2Cl)cc1C1=C(O)[C@H]2CC[C@H](C2)C1=O [Example A-335]	100	100	100	90	100	100	100	90
CCc1ccc(Oc2ncc(Cl)cc2Cl)cc1C1=C(O)[C@H]2CC[C@H](C2)C1=O [Example A-336]	100	100	90	80	100	100	90	80
CCc1ccc(Oc2nc3ccccc3s2)cc1C1=C(O)[C@H]2CC[C@H](C2)C1=O [Example A-337]	100	100	90	70	100	90	90	90
CCc1ccc(Oc2nc3ccc(Cl)cc3s2)cc1C1=C(O)[C@H]2CC[C@H](C2)C1=O [Example A-338]	100	100	90	80	100	100	100	100
CCc1ccc(Oc2nc3cc(Cl)ccc3s2)cc1C1=C(O)[C@H]2CC[C@H](C2)C1=O [Example A-339]	100	90	100	80	100	100	100	90
CCc1ccc(Oc2ccc(C(F)(F)F)c(C#N)c2)cc1C1=C(O)[C@H]2CC[C@H](C2)C1=O [Example A-340]	100	70	80	50	100	70	60	80
CCc1ccc(Oc2ncc(C(F)(F)F)cc2C(F)(F)F)cc1C1=C(O)[C@H]2CC[C@H](C2)C1=O [Example A-341]	100	100	100	90	100	100	90	100
CCc1ccc(Oc2nc3ccc([N+](=O)[O-])cc3s2)cc1C1=C(O)[C@H]2CC[C@H](C2)C1=O [Example A-342]	100	100	90	60	100	60	60	70
CCc1ccc(Oc2nc3ccc(OC)cc3s2)cc1C1=C(O)[C@H]2CC[C@H](C2)C1=O [Example A-343]	100	100	50	50	100	80	50	80
CCc1ccc(Oc2ccc(C(F)(F)F)cc2[N+](=O)[O-])cc1C1=C(O)[C@H]2CC[C@H](C2)C1=O [Example A-344]	100	80	40	30	90	70	60	90
CCc1ccc(Oc2nc3c(Cl)cc(Cl)cc3s2)cc1C1=C(O)[C@H]2CC[C@H](C2)C1=O [Example A-345]	100	100	90	60	100	100	80	100

Reference: patent publication US8865623B2, “Herbicidally active cyclic diones and derivatives thereof, processes for their preparation, compositions, and method of controlling weeds” (Syngenta Limited, priority 2009, dated 2014)
